These results are taken from US20080260724A1, “Drug Induced Exposure Of The Fungal Pro-Inflammatory Molecule Beta-Glucan” (priority 2005, published 2008).

Test [1] deals with wild-type C. albicans (CAF2). As to the kind of experiment: β-glucan exposure: anti-β-glucan antibody staining, microscopy and FACS. The note with it: for Mean fluorescence intensity (MFI), anti-β-glucan staining: FACS with PE-labeled secondary antibody. The format is cell-based. As for the experimental part: (§1) Fungi were grown overnight in YPD rich medium for yeast-form growth and RPMI 1640 for hyphal growth. C. albicans was grown at 37° C.; S. cerevisiae was grown at 30° C. For CF treatment, overnight cultures of C. albicans CAF2 were diluted 1:1,000 into fresh YPD or RPMI 1640 containing dilutions of CF (caspofungin acetate, Candidas formulation, Merck, Whitehouse Station, N.J., United States) and grown overnight. […] For viability, cells were stained with propidium iodide (Sigma, St. Louis, Mo., United States).
Fungi were grown overnight, washed, blocked in PBS+2% BSA, and stained with either the anti-β-glucan antibody (followed by Cy3- or PE-labeled secondary antibody), Alexa Fluor-labeled Dectin-CRD, or Dectin-CRD-anti-Myc. Staining with antibody and Dectin-CRD is described above for the screen. For staining with Dectin-CRD-anti-Myc, Dectin-CRD was preincubated with FITC-labeled anti-Myc (Invitrogen) at a ratio of 3.4 μg of Dectin-CRD+10 μl of anti-Myc, and then added to fungi at 1:100 on ice. Preincubation of Dectin-CRD with anti-Myc creates a probe with the same approximate size as the anti-β-glucan antibody but with the specificity of Dectin-1. Images of stained cells were taken using a Nikon TE2000-S microscope (Nikon, Tokyo, Japan) equipped with Spot RT camera (Diagnostic Instruments, Sterling Heights, Mich., United States) and processed in Photoshop (Adobe Systems, Palo Alto, Calif., United States). Fluorescence was quantified on a FACScalibur cytometer (Becton-Dickinson, Palo Alto, Calif., United States); cells were gated by forward and side scatter based on wild-type cell size and shape, and mean fluorescence intensity of 20,000 labeled cells was calculated using Cellquest software (Becton-Dickinson).
Cultures grown at one-quarter and one-eighth of the CF MIC50 (minimal inhibitory concentration to inhibit 50% of the organisms) were stained with anti-β-glucan antibody and Cy3-labeled secondary antibody (FIGS. 2A and D) for visualization by microscopy or with PE-labeled secondary antibody (FIG. 2B) for FACS quantification. […]

Test [2] concerns wild-type C. albicans (CAF2). In words: Viability by propidium iodide staining / microscopic examination. The format is cell-based. How it is done: as §1
Cultures grown at one-quarter and one-eighth of the CF MIC50 (minimal inhibitory concentration to inhibit 50% of the organisms) were stained with anti-β-glucan antibody and Cy3-labeled secondary antibody (FIGS. 2A and D) for visualization by microscopy or with PE-labeled secondary antibody (FIG. 2B) for FACS quantification. […] Concurrently, cells were labeled briefly with propidium iodide to assess viability and visualized by epifluorescence microscopy or quantified by FACS (FIG. 2C). Cells grown overnight in YPD with or without CF were UV-inactivated and then exposed to BMDMs at a yeast:macrophage ratio of 10:1. Supernatants were taken at 6 h and assayed for TNFα (FIG. 2E).

A further test deals with C. albicans CAF2. As to the kind of experiment: Growth inhibition of C. albicans by caspofungin (MIC50). The format is cell-based. The note with it: C. albicans CAF2 grown overnight in dilutions of CF. As for the experimental part: as §1
A further test relates to β-glucan receptor. As to the kind of experiment: Laminarin preincubation of BMDMs (β-glucan receptor blocking), cytokine ELISA. The format is cell-based, BL/6 mice. How it is done:
RAW264.7 macrophages (ATCC, Manassas, Va., United States) were cultured in RPMI-10 (RPMI 1640 with 10% heat-inactivated fetal bovine serum and standard concentrations of penicillin-streptomycin; GIBCO, San Diego, Calif., United States). Cells were collected and plated in 24-well plates at 5×10^5 cells/well. Bone marrow derived macro-phages (BMDMs) were differentiated as described (Brown G D, et al., (2003), J Exp Med 197:1119). Briefly, bone marrow from BL/6 mice was cultured in RPMI-10 with 15% L-cell conditioned media and 25 ng/ml recombinant M-CSF (R&D Systems, Minneapolis, Minn., United States). Cells were collected after 6 d and plated in 24-well plates at 5×10^5 cells/well.
Fungi were grown overnight, washed extensively to remove any shed proteins or polysaccharides, and normalized by OD600 or hemacytometer (these two methods produced equivalent results). For S. cerevisiae, live fungi were added to RAW264.7 macrophages at equivalent effector:target (E:T) ratio of 1:5 in 24-well plates and incubated for 6 h, when supernatants were collected for ELISA. […]
In FIG. 1A, C. albicans strains were exposed to RAW264.7 macrophages at a ratio of 2:1 (yeast:macrophage), and supernatants were collected after 6 h. […] After unbound fungi were washed off, macrophages were incubated for 6 h at 37° C., and supernatants were collected for TNFα quantitation.

A further test concerns anti-β-glucan antibody. As to the kind of experiment: Blocking of anti-β-glucan antibody binding to gas1Δ mutant. The note with it: S. cerevisiae gas1Δ. How it is done:
Overnight cultures of strains were grown in YPD and stained with anti-β-glucan primary antibody (Biosupplies Inc., Parkville, Australia) and Cy3-labeled goat-anti-mouse secondary. […] Stained cells were adhered to clear-bottom plates with concanavalin A (Sigma) and scanned with Cellomics VTI fluorescence microscopic imager (Cellomics, Pittsburgh, Pa., United States) using Target Acquisition software (Zeiss, Oberkochen, Germany). Mean average intensity and standard deviation of average intensity measurements were used to identify strains with over two standard deviations greater β-glucan exposure. Initially matA mutant strains were screened, then the independently constructed matα counterparts were screened. […]
Fungi were grown overnight, washed, blocked in PBS+2% BSA, and stained with either the anti-β-glucan antibody (followed by Cy3- or PE-labeled secondary antibody), Alexa Fluor-labeled Dectin-CRD, or Dectin-CRD-anti-Myc. […] Fluorescence was quantified on a FACScalibur cytometer (Becton-Dickinson, Palo Alto, Calif., United States); cells were gated by forward and side scatter based on wild-type cell size and shape, and mean fluorescence intensity of 20,000 labeled cells was calculated using Cellquest software (Becton-Dickinson).

The term MIC50 denotes the lowest concentration that inhibits either 50% of growth or 50% of the strains tested, depending on the study. Lower therefore signals greater potency. Regarding caspofungin acetate [CF], the “Mean fluorescence intensity (MFI), anti-β-glucan staining” value in test [1] (one-eighth the CF MIC50, YPD) turned out to be 65; in test [1] (one-quarter the CF MIC50, YPD), 161. The “exposure of β-glucan on hyphae” value in test [1] (subinhibitory doses of CF, RPMI 1640 (hyphal growth)) is given as “dramatic increase”. In addition, the viability of fungi result in test [2] (sub-inhibitory CF concentrations, YPD, propidium iodide) was “without loss of viability”. In addition, in test [2] (subinhibitory CF, RPMI 1640, microscopic examination), the “cell death of hyphae” value was “did not show increased cell death”. The substance also registered an MIC50 with C. albicans CAF2 of 2.5 ng/mL.
Regarding laminarin, the “increased elicitation of pro-inflammatory cytokines by unmasked C. albicans mutants after laminarin preincubation” value in the test with β-glucan receptor (BMDMs preincubated 20 min on ice, yeast:macrophage 10:1, 6 h) is on record as “great majority of the increased elicitation of pro-inflammatory cytokines could be blocked”. Besides, the “stimulation of macrophages by laminarin alone” value with β-glucan receptor (BMDMs, 100 μg/ml laminarin, no fungi, TNFα) is recorded as “does not stimulate”. Also, the “binding of anti-β-glucan antibody to gas1Δ mutant in presence of soluble β-glucan” value with anti-β-glucan antibody was “blocked”.
